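All cell lines were grown in 96-well plates and treated with compound for 48 hours. GI50 is the concentration that inhibits growth by half.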 Activity calls are given as the source filed them. No stated cut-off is given here; in the data, active = GI50 up to about 1.1 µM and inactive = higher.
Columns and labels:
Assay in all cases: DTP human tumour cell line panel, 48 h
786-0 = test system: 786-0
COLO 205 = test system: COLO 205
RPMI-8226 = test system: RPMI-8226
XF498 = test system: XF498
NCI-H226 = test system: NCI-H226
HOP-92 = test system: HOP-92
NCI-H460 = test system: NCI-H460
Malme-3M = test system: Malme-3M
OVCAR-8 = test system: OVCAR-8
SNB-75 = test system: SNB-75
CCRF-CEM = test system: CCRF-CEM
UACC-62 = test system: UACC-62
SNB-19 = test system: SNB-19
U-251 = test system: U-251
OVCAR-4 = test system: OVCAR-4
Hs-578T = test system: Hs-578T
MDA-MB-435 = test system: MDA-MB-435
MDA-MB-231 = test system: MDA-MB-231
MCF7 = test system: MCF7

SMILES: Cc1cc(C)c(-n2c(-c3ccccc3)cs/c2=N\N=C2C=C(C(C)(C)C)C(=O)C(C(C)(C)C)=C2)c(C)c1
- GI50 (786-0): > 100 µM (inactive)
- GI50 (COLO 205): > 100 µM (inactive)
- GI50 (RPMI-8226): > 100 µM (inactive)
- GI50 (XF498): > 100 µM (inactive)
- GI50 (NCI-H226): > 100 µM (inactive)
- GI50 (HOP-92): 39 µM (inactive)
- GI50 (NCI-H460): > 100 µM (inactive)
- GI50 (Malme-3M): > 100 µM (inactive)
- GI50 (OVCAR-8): > 100 µM (inactive)
- GI50 (SNB-75): 21.3 µM (inactive)
- GI50 (CCRF-CEM): > 100 µM (inactive)
- GI50 (UACC-62): 60.3 µM (inactive)
- GI50 (SNB-19): > 100 µM (inactive)
- GI50 (U-251): > 100 µM (inactive)
- GI50 (OVCAR-4): > 100 µM (inactive)

SMILES: COc1cccc2c1C(=O)C=CC2=O
- GI50 (Hs-578T): 15.4 µM (inactive)
- GI50 (786-0): 11.5 µM (inactive)
- GI50 (COLO 205): 7.06 µM (inactive)
- GI50 (MDA-MB-435): 10.1 µM (inactive)
- GI50 (RPMI-8226): 2.1 µM (inactive)
- GI50 (XF498): 2.52 µM (inactive)
- GI50 (NCI-H226): 19.1 µM (inactive)
- GI50 (HOP-92): 1.99 µM (inactive)
- GI50 (MDA-MB-231): 2.15 µM (inactive)
- GI50 (NCI-H460): 15.6 µM (inactive)
- GI50 (Malme-3M): 15.5 µM (inactive)
- GI50 (OVCAR-8): 3.58 µM (inactive)
- GI50 (SNB-75): 14.8 µM (inactive)
- GI50 (CCRF-CEM): 0.281 µM (active)
- GI50 (MCF7): 1.93 µM (inactive)
- GI50 (UACC-62): 10.9 µM (inactive)
- GI50 (SNB-19): 15.5 µM (inactive)
- GI50 (U-251): 6.81 µM (inactive)
- GI50 (OVCAR-4): 1.95 µM (inactive)

Reference: ChEMBL document CHEMBL1201862, “PubChem BioAssay data set” (2004)
